Columns and labels:
Assay in all cases: Test I pre-/postemergence, mixtures of Cpd. No. 20 with saflufenacil or pyroxasulfone
Format in all cases: in vivo
[1] = test system: mare's tail (ERICA; Conyza canadensis); conditions: for Plant response rating (0 to 100 scale): Preemergence, ERICA
Excerpt: (§1) This test evaluated the effect of mixtures of Cpd. No. 20 with saflufenacil or pyroxasulfone on several plant species. Seeds of plant species selected from corn (ZEAMD; Zea mays, cv. ‘Pioneer 1184’), soybean (GLXMA; Glycine max, cv. Pioneer 35T58), giant foxtail (SETFA; Setaria faberi), palmer amaranth (AMAPA; Amaranthus palmeri), common waterhemp (AMATU; Amaranthus rudis), mare's tail (ERICA; Conyza canadensis), and common ragweed (AMBEL; Ambrosia artemisiifolia) were planted in pots containing Tama Silt Loam soil and treated preemergence with a directed soil spray using test chemicals formulated in a non-phytotoxic solvent mixture which included a surfactant.
(§2) At the same time, plants selected from these crop and weed species were planted in pots containing Redi-Earth® planting medium (Scotts Company, 14111 Scottslawn Road, Marysville, Ohio 43041) comprising spaghnum peat moss, vermiculite, wetting agent and starter nutrients and treated postemergence with test chemicals formulated in the same manner. Plants ranged in height from 2 to 10 cm and were in the one- to two-leaf stage for the postemergence treatment. Treated plants and untreated controls were maintained in a greenhouse for approximately 14-21 d, after which time all treated plants were compared to untreated controls and visually evaluated for injury. Plant response ratings, summarized in Tables 11 to 14, are based on a 0 to 100 scale where 0 is no effect and 100 is complete control. A dash (-) response means no test result. Test results are presented as a mean of 4 reps.

[2] = test system: common waterhemp (AMATU; Amaranthus rudis); conditions: for Plant response rating (0 to 100 scale): Preemergence, AMATU
Excerpt: as §1, §2

[3] = test system: corn (ZEAMD; Zea mays, cv. ‘Pioneer 1184’); conditions: for Plant response rating (0 to 100 scale): Preemergence, ZEAMD
Excerpt: as §1, §2

[4] = test system: palmer amaranth (AMAPA; Amaranthus palmeri); conditions: for Plant response rating (0 to 100 scale): Preemergence, AMAPA
Excerpt: as §1, §2

[5] = test system: common ragweed (AMBEL; Ambrosia artemisiifolia); conditions: for Plant response rating (0 to 100 scale): Preemergence, AMBEL
Excerpt: as §1, §2

[6] = test system: soybean (GLXMA; Glycine max, cv. Pioneer 35T58); conditions: for Plant response rating (0 to 100 scale): Preemergence, GLXMA
Excerpt: as §1, §2

[7] = test system: giant foxtail (SETFA; Setaria faberi); conditions: for Plant response rating (0 to 100 scale): Preemergence, SETFA
Excerpt: as §1, §2

SMILES: Cn1nc(C(F)(F)F)c(CS(=O)(=O)C2=NOC(C)(C)C2)c1OC(F)F [Pyroxasulfone, pyroxasulfone, reference compound]
- ERICA plant response rating, 0 to 100 scale ([1]; postemergence, 4 g a.i./ha): 0
- ERICA plant response rating, 0 to 100 scale ([1]; postemergence, 8 g a.i./ha): 0
- ERICA plant response rating, 0 to 100 scale ([1]; preemergence, 4 g a.i./ha): 79
- ERICA plant response rating, 0 to 100 scale ([1]; preemergence, 8 g a.i./ha): 100
- AMATU plant response rating, 0 to 100 scale ([2]; postemergence, 4 g a.i./ha): 0
- AMATU plant response rating, 0 to 100 scale ([2]; postemergence, 8 g a.i./ha): 0
- AMATU plant response rating, 0 to 100 scale ([2]; preemergence, 4 g a.i./ha): 5
- AMATU plant response rating, 0 to 100 scale ([2]; preemergence, 8 g a.i./ha): 45
- ZEAMD plant response rating, 0 to 100 scale ([3]; postemergence, 4 g a.i./ha): 0
- ZEAMD plant response rating, 0 to 100 scale ([3]; postemergence, 8 g a.i./ha): 0
- ZEAMD plant response rating, 0 to 100 scale ([3]; preemergence, 4 g a.i./ha): 0
- ZEAMD plant response rating, 0 to 100 scale ([3]; preemergence, 8 g a.i./ha): 0
- AMAPA plant response rating, 0 to 100 scale ([4]; postemergence, 4 g a.i./ha): 15
- AMAPA plant response rating, 0 to 100 scale ([4]; postemergence, 8 g a.i./ha): 0
- AMAPA plant response rating, 0 to 100 scale ([4]; preemergence, 4 g a.i./ha): 0
- AMAPA plant response rating, 0 to 100 scale ([4]; preemergence, 8 g a.i./ha): 38
- AMBEL plant response rating, 0 to 100 scale ([5]; postemergence, 4 g a.i./ha): 0
- AMBEL plant response rating, 0 to 100 scale ([5]; postemergence, 8 g a.i./ha): 24
- AMBEL plant response rating, 0 to 100 scale ([5]; preemergence, 4 g a.i./ha): 0
- AMBEL plant response rating, 0 to 100 scale ([5]; preemergence, 8 g a.i./ha): 0
- GLXMA plant response rating, 0 to 100 scale ([6]; postemergence, 4 g a.i./ha): 0
- GLXMA plant response rating, 0 to 100 scale ([6]; postemergence, 8 g a.i./ha): 15
- GLXMA plant response rating, 0 to 100 scale ([6]; preemergence, 4 g a.i./ha): 0
- GLXMA plant response rating, 0 to 100 scale ([6]; preemergence, 8 g a.i./ha): 0
- SETFA plant response rating, 0 to 100 scale ([7]; postemergence, 4 g a.i./ha): 0
- SETFA plant response rating, 0 to 100 scale ([7]; postemergence, 8 g a.i./ha): 6
- SETFA plant response rating, 0 to 100 scale ([7]; preemergence, 4 g a.i./ha): 76
- SETFA plant response rating, 0 to 100 scale ([7]; preemergence, 8 g a.i./ha): 98

SMILES: CC(C)N(C)S(=O)(=O)NC(=O)c1cc(-n2c(=O)cc(C(F)(F)F)n(C)c2=O)c(F)cc1Cl [Saflufenacil, saflufenacil, reference compound]
- Plant response rating (0 to 100 scale) ([1]; Saflufenacil 4 g a.i./ha alone): 94
- Plant response rating (0 to 100 scale) ([1]; Saflufenacil 8 g a.i./ha alone): 100
- ERICA plant response rating, 0 to 100 scale ([1]; postemergence, 4 g a.i./ha): 95
- ERICA plant response rating, 0 to 100 scale ([1]; postemergence, 8 g a.i./ha): 100
- Plant response rating (0 to 100 scale) ([2]; Saflufenacil 4 g a.i./ha alone): 55
- Plant response rating (0 to 100 scale) ([2]; Saflufenacil 8 g a.i./ha alone): 84
- AMATU plant response rating, 0 to 100 scale ([2]; postemergence, 4 g a.i./ha): 85
- AMATU plant response rating, 0 to 100 scale ([2]; postemergence, 8 g a.i./ha): 90
- Plant response rating (0 to 100 scale) ([3]; Saflufenacil 4 g a.i./ha alone): 0
- Plant response rating (0 to 100 scale) ([3]; Saflufenacil 8 g a.i./ha alone): 0
- ZEAMD plant response rating, 0 to 100 scale ([3]; postemergence, 4 g a.i./ha): 15
- ZEAMD plant response rating, 0 to 100 scale ([3]; postemergence, 8 g a.i./ha): 70
- Plant response rating (0 to 100 scale) ([4]; Saflufenacil 4 g a.i./ha alone): 35
- Plant response rating (0 to 100 scale) ([4]; Saflufenacil 8 g a.i./ha alone): 88
- AMAPA plant response rating, 0 to 100 scale ([4]; postemergence, 4 g a.i./ha): 84
- AMAPA plant response rating, 0 to 100 scale ([4]; postemergence, 8 g a.i./ha): 70
- Plant response rating (0 to 100 scale) ([5]; Saflufenacil 4 g a.i./ha alone): 96
- Plant response rating (0 to 100 scale) ([5]; Saflufenacil 8 g a.i./ha alone): 100
- AMBEL plant response rating, 0 to 100 scale ([5]; postemergence, 4 g a.i./ha): 100
- AMBEL plant response rating, 0 to 100 scale ([5]; postemergence, 8 g a.i./ha): 100
- Plant response rating (0 to 100 scale) ([6]; Saflufenacil 4 g a.i./ha alone): 0
- Plant response rating (0 to 100 scale) ([6]; Saflufenacil 8 g a.i./ha alone): 0
- GLXMA plant response rating, 0 to 100 scale ([6]; postemergence, 4 g a.i./ha): 74
- GLXMA plant response rating, 0 to 100 scale ([6]; postemergence, 8 g a.i./ha): 91
- Plant response rating (0 to 100 scale) ([7]; Saflufenacil 4 g a.i./ha alone): 0
- Plant response rating (0 to 100 scale) ([7]; Saflufenacil 8 g a.i./ha alone): 0
- SETFA plant response rating, 0 to 100 scale ([7]; postemergence, 4 g a.i./ha): 23
- SETFA plant response rating, 0 to 100 scale ([7]; postemergence, 8 g a.i./ha): 55

From patent US12435044B2, “Pyridazinone herbicides and pyridazinone intermediates used to prepare a herbicide” (FMC Corporation, priority 2018, dated 2025)
